Laboratory results reported in patent US20140296223A1, “METHOD FOR REGULATING SKIN PIGMENTATION” (THE GENERAL HOSPITAL CORPORATION, priority 2011, published 2014).

Columns and labels:
[1] = test system: Microphthalmia Transcription Factor (MITF); experiment: TRPM1-luciferase reporter screen for MITF antagonists in Skme15 melanoma cells; assay type: cell-based, human; conditions: screen, suppression of TRPM1-luciferase activity, Skme15 cells
Source text: In order to carry out a successful MITF antagonist screen, the inventors utilized a TRPM1-luciferase reporter. […] Therefore, the TRPM1-luciferase reporter stably integrated into melanoma cells is effective for the screening assay. The use of melanoma cells, while less perfectly relevant than primary human melanocytes, afforded the advantages of speed and reproducibility for the screen.
In order to engineer a screen which broadly suppress MITF activity either by suppression of MITF expression or by inhibition of MITF activity, the inventors utilized a luciferase reporter containing the promoter of a strong direct transcriptional target of MITF, i.e., TRPM1 gene, the inventors have identified the active ingredients having the ability of inhibiting the expression or activation of Microphthalmia Transcription Factor (MITF) for medical or esthetic benefit. The inventors have previously identified the TRPM1 gene (also called “Melastatin”) as a direct target of MITF, which contains numerous MITF binding sites, and which directly responds in potent fashion to MITF overexpression (Miller A J, Du J, Rowan S, Hershey C L, Widlund H R, Fisher D E: Transcriptional regulation of the melanoma prognostic marker melastatin (TRPM1) by MITF in melanocytes and melanoma, Cancer Res 2004, 64:509-516). TRPM1 expression also correlates closely to MITF expression within human melanoma cell lines, as well as in clinical pigmented lesions (nevi and melanomas).
The TRPM1 promoter was ligated to the luciferase gene and inserted into a retroviral vector as well as a lentiviral vector. The lentiviral vector was used to infect primary human melanocytes, which then was subjected to a primary screen using the Broad Chemical Genetics core screening facility, and its natural products/extracts libraries. As backup, the retroviral vector was used to stably integrate into the genome of melanoma cells, which can be used for the identical small molecule screen. Screen optimization was carried out using forskolin and MSH as positive control small molecules (which upregulate cAMP and MITF expression (D'Orazio J A, Nobuhisa T, Cui R, Arya M, Spry M, Wakamatsu K, Igras V, Kunisada T, Granter S R, Nishimura E K, Ito S, Fisher D E: Topical drug rescue strategy and skin protection based on the role of Mc1r in UV-induced tanning, Nature 2006, 443:340-344)). Small molecules which suppress MSH induced TRPM1-luciferase without altering cell numbers or viability, represent initial “hits” in this screen. Negative control includes a constitutive luciferase vector within the same cells (eg driven by a constitutive promoter such as thymidine kinase promoter), to control for nonspecific inhibitors of basal transcriptional machinery-something which would otherwise be assessed in detail during secondary/tertiary analyses of candidate hits.
The human melanoma cell line Skme15 was utilized due to the advantageous growth properties as well as the inventors' prior experience that Skme15 expresses a typical level of MITF protein. […] Therefore, an integrated TRPM1-luciferase reporter was generated, and the subsequent cells were cloned twice (serially) to assure purity of the reporter cell population. Cells were maintained in drug selection to assure maintenance of the luciferase reporter (when drug was omitted, eventual loss of the luciferase signal was observed). Following re-cloning, distinct isolates were selected for further use on the basis of clonogenic growth on 384 well plates, as required for the small molecule screen. A positive control for suppression of TRPM1-luciferase signal utilized: a lentivirus encoding shRNA against MITF. […] The day-to-day variability in plating efficiency was analyzed, and found very high reproducibility in the line which was selected for further use in the screen.
The screen was carried out with a library from the Broad Institute comprising a mixture of natural products, known bioactives, and additional compounds (a total of about 13,000 compounds). […]

Skme15 = experiment: Toxicity with fluorescence viability probe (CellTiter-Fluo Cell Viability Assay); assay type: cell-based, human; conditions: composite of the variation between drug-treated and control divided by the standard error
Experimental: Although the shape of the dose-response can vary among hits, the inventors chose to include all candidates which produce dose-dependent effects. The fourth criterion which was determined is the IC50 (described formally as qAC50) which represents the half-maximal suppression dose. Most of the candidate hits resided in the high nanomolar to low micromolar range by this criterion (all of these validation data are listed in Table 1). The fifth criterion was maximal suppression (at any dose), which represented the magnitude of suppression which was attainable regardless of the dose required to achieve it. […] The sixth criterion to be determined is the Log P partition coefficient, which is a predictor of lipophilicity. For this, the inventors have used the method of Ghose and Crippen to calculate the predicted octanol-water partition coefficient (J. Comp. Chem. 9, 80(1988)). While this is only an estimate of potential skin penetration, the analysis was carried out because it helps in prioritizing likelihood of topical effectiveness, in theory. The seventh criterion was an analysis of toxicity utilizing a fluorescence viability probe (CellTiter-Fluo™ Cell Viability Assay (Promega)). Interpretation of this endpoint is complicated by the fact that it represents a composite of the variation between drug-treated and control divided by the standard error The results shown in Table 1 indicate 34 candidate molecules which satisfied all of the criteria outlined above. […] Most of their potencies ranged slightly below or above 1 uM. While the lipophilicity scores remain imperfect predictors of skin penetration capability. However, numbers of >3 can be more likely to penetrate.

Compound	Z-Score [1]	Viability z-score (treated minus control, divided by standard error) (Skme15)
Cc1oc(-c2ccc3c(c2)OCCO3)cc1C(=O)NCC(=O)O [N-[5-(2,3-dihydro-1,4-benzodioxin-6-yl)-2-methyl-3-furoyl]glycine]	−10.0065	−0.0206
COc1cccc(C(=O)NC(c2ccc(Cl)cc2)c2c(O)ccc3ccccc23)c1 (stereo not drawn) [N-[(4-chlorophenyl)(2-hydroxy-1-naphthyl)methyl]-3-methoxybenzamide]	−11.9861	−0.1221
O=C(CCSc1nc(-c2ccccc2)cs1)Nc1ccccc1 [N-phenyl-3-[(4-phenyl-1,3-thiazol-2-yl)thio]propanamide]	−10.8255	−0.2442
O=C(O)COc1cccc(-c2nc3ccccc3s2)c1 [[3-(1,3-benzothiazol-2-yl)phenoxy]acetic acid]	−11.9101	−0.0206
N#CC(C#N)=C(Nc1ccccc1Cl)SCc1cccc(F)c1 [{[(2-chlorophenyl)amino][(3-fluorobenzyl)thio]methylene}malononitrile]	−10.3064	−1.5092
N#CC(C#N)=C(Nc1ccc(Br)cc1)SCc1ccc(F)cc1 [{[(4-bromophenyl)amino][(4-fluorobenzyl)thio]methylene}malononitrile]	−9.463	−1.5092
